Test results reported in patent US12286437B2, “Cardiac sarcomere inhibitors” (Cytokinetics, Inc., priority 2021, dated 2025).

What was measured:
[1] = Dog cassette dosing pharmacokinetics; format: in vivo, beagle dogs; conditions: male, beagle, plasma, IV; for Vd: read-out: Vss; for half-life: read-out: t½ (converted)
Protocol: Non-naïve male beagle dogs (8 months to 3 years of age, body weight 8-14 kg) sourced from Jiangsu Johnsen Bioresource CO. and/or Beijing Rixinkeji CO., LTD and/or Beijing Marshall Biotechnology CO., LTD were used in this study. All animals for IV administration had free access to food and water. The IV dose solution was prepared in 10% DMA/50% PG/40% HPβCD solution (40% w/v aqueous HPβCD) at a concentration of 0.2 mg/mL. Concentrations of IV dose was measured at the end of the study. PK parameters were calculated using the nominal dose values if the measured values were within 20% of the nominal values. Blood samples were collected by venipuncture of peripheral veins except the dosing vein at pre-dose, 5 15, 30 min, 1, 2, 4, 6, 8 and 24 h post-dose. Blood samples were centrifuged and resultant plasma was frozen for bioanalysis. Plasma samples were stored at −80° C. before analysis. Plasma samples were analyzed for compound concentrations using the LC/MS/MS method. Briefly, a 50 μL aliquot of each plasma sample was mixed with 100 μL of acetonitrile that contained an internal standard. The mixture was vortexed and centrifuged. Ten (10) μL of the resulting solution was injected onto a reverse-phase C18 column and the resultant peaks detected on a LC/MS/MS equipped with a turbo ionspray ionization source. Sample concentrations below the limit of quantification (BLQ) were treated as zero for PK calculations. PK parameters were estimated from individual animals using noncompartmental analysis of the concentration-time data (Phoenix WinNonLin software, version 64; Pharsight, Mountain View, CA). The elimination rate constant (k) was calculated as the absolute value of the slope of the linear regression of logarithm (log) of the concentration versus time for the last three data points of the concentration-time profiles. Apparent elimination half-life (t1/2) values were calculated as ln(2)/k. Area under the concentration-time curve (AUC) values were estimated using linear trapezoidal method. AUCt values were calculated from the dosing time to the last measurable concentration. AUC∞ values were calculated as the sum of the corresponding AUCt and the ratio of the last detectable concentration divided by k. Plasma clearance (CL) was calculated from Dose/AUC∞. Mean resident time extrapolated to infinity (MRT∞) was estimated by moment analysis. Vss was calculated from MRT∞×CL. Maximum concentration (Cmax) and time to reach Cmax (tmax) were recorded as observed. As this was a cross-over study, bioavailability was calculated dAUC∞,po/dAUC∞,iv×100% where dAUC was the dose normalized AUC value from the same animal given IV and PO dose. Data for compounds tested are provided in Table G. Compounds tested were prepared in accordance with the synthetic procedures described herein.

CYP2C9 = target: T1, CYP2C9 (Homo sapiens, UniProt P11712); test: Time-dependent inhibition of CYP2C9 in human liver microsomes; format: in vitro ADME; conditions: for (% Activity NADPH T0)/(% Activity NADPH T30): fold change; for activity at 30 min, 25 µM / activity at 0 min, 25 µM / activity at 30 min, 50 µM / activity at 0 min, 50 µM: pooled human liver microsomes, human liver microsomes; for activity at 30 min, 25 µM / activity at 30 min, 50 µM: after 30 minutes incubation, read-out: % Activity NADPH T30; for activity at 0 min, 25 µM / activity at 0 min, 50 µM: time zero, read-out: % Activity NADPH T0
T1 construct: Pooled human microsomes and selective CYP probe substrates were used; from tissue; host or cells: pooled human liver microsomes
Protocol: (§1) An assessment of the time-dependent Inhibitory Potential of the test compounds against Principal Human Cytochrome P450 Isozymes using Human Liver Microsomes was also carried out using standard methods (Grimm et al, Drug Metab. Dispos., July; 37(7):1355-70. doi: 10.1124/dmd.109.026716, 2009). Pooled human microsomes and selective CYP probe substrates were used for in vitro assessment of test compounds at 25 and 50 μM as time-dependent inhibitors of […] human hepatic cytochrome P450 isozymes (CYP1A2, 2B6, 2C9, 2C19, 2D6, and 3A4). LC-MS/MS was used to quantify metabolite formation. The inhibition of each P450 enzyme in human liver microsomes was measured as the percentage decrease in the activity of marker metabolite formation as measured by LC-MS/MS compared to non-inhibited controls (=100% activity) at time zero and after 30 minutes incubation. The occurrence of any time dependent inhibition was then expressed as the fold change in enzyme activity at time zero relative to the activity after 30 minutes incubation.

CYP1A2 = target: T2, CYP1A2 (Homo sapiens, UniProt P05177); test: Time-dependent inhibition of CYP1A2 in human liver microsomes; format: in vitro ADME; conditions: for (% Activity NADPH T0)/(% Activity NADPH T30): fold change; for activity at 30 min, 25 µM / activity at 0 min, 25 µM / activity at 30 min, 50 µM / activity at 0 min, 50 µM: pooled human liver microsomes, human liver microsomes; for activity at 30 min, 25 µM / activity at 30 min, 50 µM: after 30 minutes incubation, read-out: % Activity NADPH T30; for activity at 0 min, 25 µM / activity at 0 min, 50 µM: time zero, read-out: % Activity NADPH T0
T2 construct: Pooled human microsomes and selective CYP probe substrates were used; from tissue; host or cells: pooled human liver microsomes
T2 sequence (P05177 1-516): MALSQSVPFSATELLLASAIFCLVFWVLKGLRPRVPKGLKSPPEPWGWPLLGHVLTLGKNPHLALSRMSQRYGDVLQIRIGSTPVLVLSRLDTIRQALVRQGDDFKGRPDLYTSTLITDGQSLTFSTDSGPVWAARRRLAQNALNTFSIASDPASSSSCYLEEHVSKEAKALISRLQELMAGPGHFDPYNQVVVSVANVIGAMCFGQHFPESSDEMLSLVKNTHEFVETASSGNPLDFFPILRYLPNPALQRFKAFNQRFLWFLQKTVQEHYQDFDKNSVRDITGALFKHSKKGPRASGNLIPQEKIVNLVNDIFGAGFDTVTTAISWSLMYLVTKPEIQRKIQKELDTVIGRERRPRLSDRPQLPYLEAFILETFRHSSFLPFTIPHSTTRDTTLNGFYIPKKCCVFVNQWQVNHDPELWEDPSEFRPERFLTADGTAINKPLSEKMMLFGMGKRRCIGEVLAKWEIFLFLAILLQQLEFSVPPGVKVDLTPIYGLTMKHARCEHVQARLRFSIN
Protocol: as §1

T1 sequence (P11712 whole entry): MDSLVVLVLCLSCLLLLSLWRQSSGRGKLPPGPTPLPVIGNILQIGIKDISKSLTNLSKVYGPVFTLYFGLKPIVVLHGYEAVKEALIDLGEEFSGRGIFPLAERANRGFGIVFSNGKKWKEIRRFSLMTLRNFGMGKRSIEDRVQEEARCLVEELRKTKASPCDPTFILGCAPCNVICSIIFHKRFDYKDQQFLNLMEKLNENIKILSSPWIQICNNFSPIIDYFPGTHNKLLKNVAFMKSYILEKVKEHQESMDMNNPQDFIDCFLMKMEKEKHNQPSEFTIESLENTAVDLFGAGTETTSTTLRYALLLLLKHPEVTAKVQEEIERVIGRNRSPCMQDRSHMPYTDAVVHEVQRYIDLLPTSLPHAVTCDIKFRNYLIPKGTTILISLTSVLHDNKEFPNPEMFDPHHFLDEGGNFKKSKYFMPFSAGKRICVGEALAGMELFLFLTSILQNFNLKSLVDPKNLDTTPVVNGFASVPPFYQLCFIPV

clearance [1] | Vd [1] | half-life [1] | (% Activity NADPH T0)/(% Activity NADPH T30) (CYP2C9; CYP2C9, 25 μM) | (% Activity NADPH T0)/(% Activity NADPH T30) (CYP2C9; CYP2C9, 50 μM) | activity at 30 min, 25 µM (CYP2C9; CYP2C9, 25 μM) | activity at 0 min, 25 µM (CYP2C9; CYP2C9, 25 μM) | activity at 30 min, 50 µM (CYP2C9; CYP2C9, 50 μM) | activity at 0 min, 50 µM (CYP2C9; CYP2C9, 50 μM) | (% Activity NADPH T0)/(% Activity NADPH T30) (CYP1A2; CYP1A2, 25 μM) | (% Activity NADPH T0)/(% Activity NADPH T30) (CYP1A2; CYP1A2, 50 μM) | activity at 30 min, 25 µM (CYP1A2; CYP1A2, 25 μM) | activity at 0 min, 25 µM (CYP1A2; CYP1A2, 25 μM) | activity at 30 min, 50 µM (CYP1A2; CYP1A2, 50 μM) | activity at 0 min, 50 µM (CYP1A2; CYP1A2, 50 μM) | (% Activity NADPH T0)/(% Activity NADPH T30) (CYP2C9; CYP2C9, 50 μM, listed as compound 7) | SMILES
15.6 mL/min/kg | 6.26 L/kg | 5.66 h | 1.0 | 1.0 | 107% | 104% | 109% | 112% | 0.9 | 0.9 | 96% | 82% | 101% | 86% | – | CC(C)N1CC(=O)N(Cc2ccc(Cl)c(F)c2)C2(CN(c3cccnn3)C2)C1=O [Compound 8, 5-(4-chloro-3-fluorobenzyl)-8-isopropyl-2-(pyridazin-3-yl)-2,5,8-triazaspiro[3.5]nonane-6,9-dione]
9.26 mL/min/kg | 6.17 L/kg | 9.86 h | 0.8 | 1.0 | 79% | 62% | 64% | 62% | 1.0 | 1.1 | 87% | 89% | 88% | 99% | – | C[C@H]1CC[C@H](N2CC(=O)N(Cc3ccc(F)c(F)c3)C3(CN(C(N)=O)C3)C2=O)CC1 [Compound 5, 5-(3,4-difluorobenzyl)-8-((1r,4r)-4-methylcyclohexyl)-6,9-dioxo-2,5,8-triazaspiro[3.5]nonane-2-carboxamide]
9.08 mL/min/kg | 3.98 L/kg | 7.11 h | 1.2 | 1.0 | 41% | 48% | 33% | 34% | 1.1 | 1.0 | 85% | 97% | 99% | 95% | – | Cc1cc(CN2C(=O)CN([C@H]3CC[C@H](C)CC3)C(=O)C23CN(C(N)=O)C3)ccc1F [Compound 6, 5-(4-fluoro-3-methylbenzyl)-8-((1r,4r)-4-methylcyclohexyl)-6,9-dioxo-2,5,8-triazaspiro[3.5]nonane-2-carboxamide]
11.5 mL/min/kg | 3.72 L/kg | 4.16 h | 0.9 | 1.0 | 114% | 107% | 109% | 111% | 0.9 | 0.8 | 99% | 88% | 110% | 92% | – | CC(C)N1CC(=O)N(Cc2ccc(C(F)(F)F)cc2)C2(CN(c3cccnn3)C2)C1=O [Compound 13, 8-isopropyl-2-(pyridazin-3-yl)-5-(4-(trifluoromethyl)benzyl)-2,5,8-triazaspiro[3.5]nonane-6,9-dione]
9.22 mL/min/kg | 6.33 L/kg | 10.9 h | 1.3 | 1.4 | 75% | 94% | 61% | 87% | 0.9 | 0.8 | 95% | 81% | 100% | 79% | 1.3 | C[C@H]1CC[C@H](N2CC(=O)N(Cc3ccc(F)c(Cl)c3)C3(CN(C(N)=O)C3)C2=O)CC1 [Compound 7, 5-(3-chloro-4-fluorobenzyl)-8-((1r,4r)-4-methylcyclohexyl)-6,9-dioxo-2,5,8-triazaspiro[3.5]nonane-2-carboxamide]
7.07 mL/min/kg | 4.29 L/kg | 9.08 h | 0.9 | 1.2 | 47% | 44% | 27% | 32% | 0.9 | 1.0 | 99% | 85% | 90% | 92% | – | C[C@H]1CC[C@H](N2CC(=O)N(Cc3ccc(Cl)cc3)C3(CN(C(N)=O)C3)C2=O)CC1 [Compound 18, 5-(4-chlorobenzyl)-8-((1r,4r)-4-methylcyclohexyl)-6,9-dioxo-2,5,8-triazaspiro[3.5]nonane-2-carboxamide]
– | – | – | 1.0 | 0.9 | – | – | – | – | 1.1 | 1.0 | – | – | – | – | – | C[C@H]1CC[C@H](N2CC(=O)N(Cc3ccc(F)c(F)c3)C3(CN(C=O)C3)C2=O)CC1 [Compound 4, 5-(3,4-difluorobenzyl)-8-((1r,4r)-4-methylcyclohexyl)-6,9-dioxo-2,5,8-triazaspiro[3.5]nonane-2-carbaldehyde]
